Assay results: ChEMBL document CHEMBL1141234, “Synthesis and SAR of highly potent dual 5-HT1A and 5-HT1B antagonists as potential antidepressant drugs” (Bioorg Med Chem Lett, 2005)
Active and inactive are the calls of the source. The rule behind the calls is not given here.

Assays:
[1] = target: Sodium-dependent serotonin transporter (Homo sapiens) (UniProt P31645); experiment: Inhibitory activity against SERT upto 10 uM
[2] = target: T1, 5-hydroxytryptamine receptor 1A (Homo sapiens) (UniProt P08908); experiment: Functional activity in [35S]GTP-gamma-S assay for 5HT1A receptor; conditions: filed as antagonist
T1 sequence (whole entry): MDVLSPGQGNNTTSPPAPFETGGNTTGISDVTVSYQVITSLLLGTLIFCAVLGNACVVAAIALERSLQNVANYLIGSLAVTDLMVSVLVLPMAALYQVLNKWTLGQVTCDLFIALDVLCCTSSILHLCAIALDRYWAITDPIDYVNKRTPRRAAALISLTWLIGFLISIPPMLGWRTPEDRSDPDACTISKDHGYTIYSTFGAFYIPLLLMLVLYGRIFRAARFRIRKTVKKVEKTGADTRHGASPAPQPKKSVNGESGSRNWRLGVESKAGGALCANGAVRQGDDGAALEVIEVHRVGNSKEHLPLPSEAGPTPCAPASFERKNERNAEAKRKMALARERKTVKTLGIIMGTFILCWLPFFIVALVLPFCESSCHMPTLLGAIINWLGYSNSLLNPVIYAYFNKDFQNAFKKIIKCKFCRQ

D(3) dopamine receptor = D(3) dopamine receptor (Homo sapiens, UniProt P35462); experiment: Inhibitory activity against dopamine D3 receptor
D(3) dopamine receptor, sequence (P35462 whole entry): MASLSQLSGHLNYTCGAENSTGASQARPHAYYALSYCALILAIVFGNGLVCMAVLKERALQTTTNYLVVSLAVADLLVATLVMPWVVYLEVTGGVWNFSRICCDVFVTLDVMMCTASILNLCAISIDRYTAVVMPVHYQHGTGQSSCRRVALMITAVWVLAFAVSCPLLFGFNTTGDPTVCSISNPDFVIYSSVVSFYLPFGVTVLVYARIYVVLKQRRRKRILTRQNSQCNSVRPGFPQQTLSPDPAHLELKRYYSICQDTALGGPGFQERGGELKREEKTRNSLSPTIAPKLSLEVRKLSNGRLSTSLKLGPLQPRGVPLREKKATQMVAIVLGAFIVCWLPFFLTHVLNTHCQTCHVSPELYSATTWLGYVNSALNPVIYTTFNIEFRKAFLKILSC

[3] = target: T1, 5-hydroxytryptamine receptor 1A (Homo sapiens); experiment: Intrinsic activity for 5HT1A receptor in [35S]GTP-gamma-S assay; format: functional
[4] = target: T2, 5-hydroxytryptamine receptor 1A (Homo sapiens, UniProt P08908); experiment: Displacement of [35S]GTP-gamma-S from human recombinant 5HT1A receptor; format: functional
T2 sequence (P08908 whole entry): T1 sequence (whole entry)

[5] = Oral bioavailability in rat at 10 mg/kg, po; format: ADME, organism-based; conditions: in vivo
[6] = target: 5-hydroxytryptamine receptor 7 (Homo sapiens, UniProt P34969); experiment: Inhibitory activity against 5HT7 receptor
5-hydroxytryptamine receptor 7, sequence (P34969 whole entry): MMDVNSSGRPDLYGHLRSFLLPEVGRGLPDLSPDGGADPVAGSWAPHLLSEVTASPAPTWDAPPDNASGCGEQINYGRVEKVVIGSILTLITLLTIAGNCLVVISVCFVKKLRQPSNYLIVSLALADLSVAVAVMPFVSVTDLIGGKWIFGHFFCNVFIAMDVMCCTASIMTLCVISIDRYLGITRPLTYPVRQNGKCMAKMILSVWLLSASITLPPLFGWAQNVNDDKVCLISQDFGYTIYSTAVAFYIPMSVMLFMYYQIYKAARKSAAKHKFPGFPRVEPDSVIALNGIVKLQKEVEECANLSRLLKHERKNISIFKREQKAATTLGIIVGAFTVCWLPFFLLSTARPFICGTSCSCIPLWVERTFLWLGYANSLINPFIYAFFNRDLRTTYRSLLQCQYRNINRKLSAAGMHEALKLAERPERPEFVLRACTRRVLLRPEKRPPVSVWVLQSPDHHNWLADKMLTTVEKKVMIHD

[7] = target: 5-hydroxytryptamine receptor 1B (Rattus norvegicus, UniProt P28564); experiment: Binding affinity for rat 5HT1B receptor
5-hydroxytryptamine receptor 1B, sequence (P28564 whole entry): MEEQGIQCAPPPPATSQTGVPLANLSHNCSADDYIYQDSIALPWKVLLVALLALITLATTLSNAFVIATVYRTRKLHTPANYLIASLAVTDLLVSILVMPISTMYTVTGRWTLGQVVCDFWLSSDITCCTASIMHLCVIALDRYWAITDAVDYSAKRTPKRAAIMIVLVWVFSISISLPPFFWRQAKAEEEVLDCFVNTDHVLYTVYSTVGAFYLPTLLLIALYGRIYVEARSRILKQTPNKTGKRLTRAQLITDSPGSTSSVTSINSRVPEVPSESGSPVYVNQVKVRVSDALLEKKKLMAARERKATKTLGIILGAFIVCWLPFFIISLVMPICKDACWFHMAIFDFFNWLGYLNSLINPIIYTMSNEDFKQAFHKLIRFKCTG

[8] = target: 5-hydroxytryptamine receptor 2A (Homo sapiens, UniProt P28223); experiment: Inhibitory activity against 5HT2A receptor
5-hydroxytryptamine receptor 2A, sequence (P28223 whole entry): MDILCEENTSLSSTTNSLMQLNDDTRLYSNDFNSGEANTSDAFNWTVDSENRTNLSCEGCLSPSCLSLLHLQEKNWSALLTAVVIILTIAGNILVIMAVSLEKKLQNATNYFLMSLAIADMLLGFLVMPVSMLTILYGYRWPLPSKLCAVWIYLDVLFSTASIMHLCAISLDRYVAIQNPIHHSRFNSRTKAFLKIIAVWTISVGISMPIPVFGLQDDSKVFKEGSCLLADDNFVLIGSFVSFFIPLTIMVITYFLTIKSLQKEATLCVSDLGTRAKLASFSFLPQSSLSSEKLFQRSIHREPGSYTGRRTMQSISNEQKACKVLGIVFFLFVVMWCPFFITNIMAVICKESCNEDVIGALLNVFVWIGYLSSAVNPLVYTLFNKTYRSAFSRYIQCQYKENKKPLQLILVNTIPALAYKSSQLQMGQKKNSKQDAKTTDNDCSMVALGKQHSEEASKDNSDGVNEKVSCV

[9] = target: 5-hydroxytryptamine receptor 5A (Homo sapiens, UniProt P47898); experiment: Inhibitory activity against 5HT5A receptor
5-hydroxytryptamine receptor 5A, sequence (P47898 whole entry): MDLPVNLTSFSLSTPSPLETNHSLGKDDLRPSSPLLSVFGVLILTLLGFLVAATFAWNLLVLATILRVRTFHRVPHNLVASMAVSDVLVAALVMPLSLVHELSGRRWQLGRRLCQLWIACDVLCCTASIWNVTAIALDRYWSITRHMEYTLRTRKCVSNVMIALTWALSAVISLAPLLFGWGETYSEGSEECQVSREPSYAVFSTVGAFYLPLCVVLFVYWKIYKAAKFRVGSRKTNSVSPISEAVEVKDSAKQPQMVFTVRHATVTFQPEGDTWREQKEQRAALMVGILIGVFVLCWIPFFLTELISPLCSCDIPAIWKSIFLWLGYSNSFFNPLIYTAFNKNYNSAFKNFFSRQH

Sodium-dependent serotonin transporter (Homo sapiens), sequence (P31645 whole entry, looked up): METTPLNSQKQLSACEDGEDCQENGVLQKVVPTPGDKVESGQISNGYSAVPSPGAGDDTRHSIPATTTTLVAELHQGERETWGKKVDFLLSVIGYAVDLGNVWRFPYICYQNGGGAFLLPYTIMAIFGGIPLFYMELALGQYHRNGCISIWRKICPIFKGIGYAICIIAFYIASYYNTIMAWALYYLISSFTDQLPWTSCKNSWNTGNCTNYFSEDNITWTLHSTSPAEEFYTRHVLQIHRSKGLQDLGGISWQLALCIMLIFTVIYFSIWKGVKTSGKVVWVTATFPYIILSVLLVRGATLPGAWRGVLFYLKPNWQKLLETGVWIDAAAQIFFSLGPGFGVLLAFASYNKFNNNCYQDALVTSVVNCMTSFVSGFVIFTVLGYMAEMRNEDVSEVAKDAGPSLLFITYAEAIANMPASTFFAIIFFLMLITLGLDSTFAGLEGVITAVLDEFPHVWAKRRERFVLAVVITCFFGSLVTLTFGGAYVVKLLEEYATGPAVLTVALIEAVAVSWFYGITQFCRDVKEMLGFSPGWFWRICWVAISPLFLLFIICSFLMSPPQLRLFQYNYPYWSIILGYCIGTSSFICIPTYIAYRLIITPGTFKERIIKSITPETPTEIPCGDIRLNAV

In the case of `CN1CCc2c(sc3ncn(CCN4CCN(c5cncc6ccccc56)CC4)c(=O)c23)C1`, the Activity [1] is reported as “inactive”, the Activity [2] is reported as “Antagonist” and the Ki (D(3) dopamine receptor) is reported as 1.18 nM. It also gave an Emax [3] of 4%, an IC50 [4] of 316 nM and a Ki [4] of 4.7 nM. For the same compound, the bioavailability [5] was 11%, the Ki [6] was 520 nM and the Ki [7] was 33.1 nM. For the same compound, the Ki [8] was 180 nM and the Ki [9] was over 10000 nM.
